# Results published in ChEMBL document CHEMBL1201862, “PubChem BioAssay data set” (2004).
# The source made the active and inactive calls.
# Experiments:
# [1] = target: SUMO-activating enzyme (Homo sapiens, UniProt Q9UBT2); experiment: blockers of SAE1/SAE2–UBC9 SUMO transfer – biochemical, HTRF, uHTS, primary screen (AID 2006); type: protein-complex assay
# [2] = target: SUMO E1/E2 (Homo sapiens, UniProt P63279+Q9UBE0+Q9UBT2); experiment: SAR analysis of SUMOylation using HTRF in an in-Vitro dose response assay. [Related pubchem assays (depositor defined):AID2006, AID2011, AID2018, AID2069, AID2658]; type: functional
# [3] = target: T1, Streptokinase A (Streptococcus pyogenes serotype M1, UniProt P10520); experiment: viability-normalized secreted streptokinase activity reduction – plasminogen activation absorbance, OD405, dose response (AID 1914); type: functional, Streptococcus pyogenes M1 GAS;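 also: secreted streptokinase activity via plasminogen activation per viability signal from cell pellet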
# T1 sequence (P10520 whole entry): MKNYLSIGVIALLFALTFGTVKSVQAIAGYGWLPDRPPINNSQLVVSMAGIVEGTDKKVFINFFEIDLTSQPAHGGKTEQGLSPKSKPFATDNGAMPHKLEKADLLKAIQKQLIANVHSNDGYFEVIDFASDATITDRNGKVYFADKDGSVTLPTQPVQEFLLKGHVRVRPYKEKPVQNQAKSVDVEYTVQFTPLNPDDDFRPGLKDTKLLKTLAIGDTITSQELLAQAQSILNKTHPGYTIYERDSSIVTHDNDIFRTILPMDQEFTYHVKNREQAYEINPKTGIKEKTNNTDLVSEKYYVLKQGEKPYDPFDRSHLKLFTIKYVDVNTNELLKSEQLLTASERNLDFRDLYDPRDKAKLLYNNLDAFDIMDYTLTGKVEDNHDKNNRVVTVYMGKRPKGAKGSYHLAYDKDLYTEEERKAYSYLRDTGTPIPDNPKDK
# [4] = test system: HEK293; experiment: cells; type: functional, cell-based; details: Homo sapiens;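 also: HEK-293-T cells carrying an NF-kB luciferase reporter; cells exposed to compound overnight before the viability read; potency for loss of cell viability meaning cytotoxicity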
# [5] = target: Nucleotide-binding oligomerization domain-containing protein 2 (Homo sapiens, UniProt Q9HC29); experiment: inhibition of NOD2-driven NF-kB reporter – cell-based, luminescence, uHTS, HEK293 (AID 1566); type: functional
# [6] = test system: Streptococcus; experiment: GAS UMAA2166 growth inhibition – luminescence, BacTiterGlo, counter-screen for streptokinase expression inhibitor project, dose response (AID 1915); type: functional, organism-based;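 also: potency for reduction of bacterial viability or growth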
# [7] = test system: H4; experiment: inhibitors of control reporter signal in H4 cells – cell-based, plate reader, dry powder samples, counter-screen for prion reporter project, dose response (AID 540255); type: functional; details: Homo sapiens
# [8] = target: 5-hydroxytryptamine receptor 5A (Homo sapiens, UniProt P47898); experiment: Counterscreen for agonists of OPRM1-OPRD1 heterodimerization: luminescence-based cell-based high throughput dose response assay to identify agonists of 5-hydroxytryptamine (serotonin) 5A receptor (HTR5A). [Related pubchem assays (depositor defined):AID504326, AID504355, AID504692, AID504904, AID504905]; type: functional
# [9] = target: Polyadenylate-binding protein 1 (Homo sapiens, UniProt P11940); experiment: MLLE binding blockers, Cy5 peptide tracer – biochemical, fluorescence polarization, Cy5-PAM2 peptide, secondary, miRNA deadenylation inhibitor project, dose response (AID 602260); type: functional; details: read-out: IC50_Mean
# [10] = target: Serine/threonine-protein phosphatase PP1-alpha catalytic subunit (Homo sapiens, UniProt P62136); experiment: inhibition of protein phosphatase 1 activity – biochemical, fluorescence, dose response (AID 2394)
# [11] = Trypanosoma cruzi growth suppression in host cells – NIH3T3 host cells, beta-gal luminescence, confirmation (AID 2044); type: functional, cell-based;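 also: intracellular parasites grown in NIH/3T3 mouse fibroblasts as host cells; luminescent beta-galactosidase reporter signal from transgenic T. cruzi replicating inside host cells; inhibitors lower the luminescence signal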
# [12] = NIH3T3 cell viability loss – ATP luminescence, mouse fibroblasts, counter-screen, dose response (AID 2010); type: functional, cell-based;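 also: cells exposed to compound for about 90 hours before reading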
# [13] = target: T2, Sentrin-specific protease 8 (Homo sapiens, UniProt Q96LD8); experiment: inhibition of human SENP8 cleavage activity – biochemical, luminescence, SAR follow-up (AID 504501); type: functional
# T2 sequence (Q96LD8 whole entry): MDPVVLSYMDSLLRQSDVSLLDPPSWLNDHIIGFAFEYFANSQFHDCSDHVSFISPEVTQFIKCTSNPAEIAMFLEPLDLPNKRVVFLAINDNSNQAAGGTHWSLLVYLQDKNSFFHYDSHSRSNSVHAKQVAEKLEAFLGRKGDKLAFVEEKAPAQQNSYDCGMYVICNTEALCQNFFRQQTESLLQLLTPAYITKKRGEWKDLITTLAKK
# [14] = target: T3, Sentrin-specific protease 7 (Homo sapiens, UniProt Q9BQF6); experiment: inhibition of human SENP7 cleavage activity – biochemical, luminescence, SAR follow-up (AID 504497); type: functional
# T3 sequence (Q9BQF6 whole entry): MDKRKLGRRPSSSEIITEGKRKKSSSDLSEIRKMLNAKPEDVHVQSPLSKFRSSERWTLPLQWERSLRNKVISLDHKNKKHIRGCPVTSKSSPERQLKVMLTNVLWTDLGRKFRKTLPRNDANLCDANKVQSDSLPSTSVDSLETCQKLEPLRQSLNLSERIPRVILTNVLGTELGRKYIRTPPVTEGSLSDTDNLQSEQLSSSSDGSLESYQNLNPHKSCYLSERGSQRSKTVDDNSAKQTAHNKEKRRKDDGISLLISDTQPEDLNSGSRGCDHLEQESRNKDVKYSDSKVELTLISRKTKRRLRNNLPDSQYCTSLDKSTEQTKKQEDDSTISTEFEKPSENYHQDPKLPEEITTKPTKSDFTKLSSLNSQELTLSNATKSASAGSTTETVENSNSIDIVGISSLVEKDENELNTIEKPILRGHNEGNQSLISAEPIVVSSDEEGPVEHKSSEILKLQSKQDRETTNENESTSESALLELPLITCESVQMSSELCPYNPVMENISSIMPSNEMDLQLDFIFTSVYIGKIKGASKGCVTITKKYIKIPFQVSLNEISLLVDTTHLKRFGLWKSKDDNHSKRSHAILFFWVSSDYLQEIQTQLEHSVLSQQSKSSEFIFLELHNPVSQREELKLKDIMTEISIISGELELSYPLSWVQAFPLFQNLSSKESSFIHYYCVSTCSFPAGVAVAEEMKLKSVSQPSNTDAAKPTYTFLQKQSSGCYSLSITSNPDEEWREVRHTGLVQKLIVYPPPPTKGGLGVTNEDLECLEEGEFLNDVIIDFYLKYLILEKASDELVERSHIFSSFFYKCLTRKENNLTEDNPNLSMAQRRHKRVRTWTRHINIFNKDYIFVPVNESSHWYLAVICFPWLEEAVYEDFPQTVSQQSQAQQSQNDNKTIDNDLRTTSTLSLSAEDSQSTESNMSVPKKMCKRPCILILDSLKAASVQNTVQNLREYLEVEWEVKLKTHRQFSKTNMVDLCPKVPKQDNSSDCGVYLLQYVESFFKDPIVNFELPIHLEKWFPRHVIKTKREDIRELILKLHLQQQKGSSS
# Sequence of Serine/threonine-protein phosphatase PP1-alpha catalytic subunit (P62136 whole entry): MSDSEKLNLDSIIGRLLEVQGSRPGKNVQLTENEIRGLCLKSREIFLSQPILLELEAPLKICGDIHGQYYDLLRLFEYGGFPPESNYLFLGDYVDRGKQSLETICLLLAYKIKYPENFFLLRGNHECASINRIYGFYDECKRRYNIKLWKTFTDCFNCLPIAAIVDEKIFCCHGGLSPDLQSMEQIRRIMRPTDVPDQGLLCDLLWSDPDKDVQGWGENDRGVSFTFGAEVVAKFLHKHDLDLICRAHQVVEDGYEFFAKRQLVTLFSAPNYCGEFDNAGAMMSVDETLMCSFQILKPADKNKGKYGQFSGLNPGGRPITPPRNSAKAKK
# Sequence of Nucleotide-binding oligomerization domain-containing protein 2 (Q9HC29 whole entry, the tested form may be a part): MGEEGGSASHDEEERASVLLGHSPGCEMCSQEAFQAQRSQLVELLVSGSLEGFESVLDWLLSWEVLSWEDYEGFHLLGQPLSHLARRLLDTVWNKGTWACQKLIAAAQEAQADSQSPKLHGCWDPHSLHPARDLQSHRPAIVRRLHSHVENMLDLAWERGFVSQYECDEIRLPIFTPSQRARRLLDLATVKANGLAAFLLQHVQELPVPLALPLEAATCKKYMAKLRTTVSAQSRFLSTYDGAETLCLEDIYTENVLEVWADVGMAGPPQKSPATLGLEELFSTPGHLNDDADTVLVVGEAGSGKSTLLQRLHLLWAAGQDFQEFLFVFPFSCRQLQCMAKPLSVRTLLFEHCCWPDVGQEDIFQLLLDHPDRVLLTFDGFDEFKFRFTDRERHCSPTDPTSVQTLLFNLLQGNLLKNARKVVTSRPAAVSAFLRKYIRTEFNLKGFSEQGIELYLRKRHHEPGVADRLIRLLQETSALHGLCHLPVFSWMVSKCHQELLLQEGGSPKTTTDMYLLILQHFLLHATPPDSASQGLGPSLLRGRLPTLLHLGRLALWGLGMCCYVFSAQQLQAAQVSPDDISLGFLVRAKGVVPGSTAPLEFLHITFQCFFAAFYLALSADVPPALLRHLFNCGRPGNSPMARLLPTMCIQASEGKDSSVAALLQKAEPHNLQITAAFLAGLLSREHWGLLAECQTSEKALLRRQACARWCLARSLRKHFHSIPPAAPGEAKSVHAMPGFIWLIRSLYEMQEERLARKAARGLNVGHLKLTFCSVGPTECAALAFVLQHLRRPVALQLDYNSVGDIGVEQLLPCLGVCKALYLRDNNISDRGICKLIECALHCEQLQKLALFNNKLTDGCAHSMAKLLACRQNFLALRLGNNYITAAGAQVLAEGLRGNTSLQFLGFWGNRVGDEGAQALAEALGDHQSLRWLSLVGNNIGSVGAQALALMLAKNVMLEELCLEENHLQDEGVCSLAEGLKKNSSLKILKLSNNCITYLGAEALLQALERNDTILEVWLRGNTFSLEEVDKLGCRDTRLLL
# Sequence of 5-hydroxytryptamine receptor 5A (P47898 whole entry): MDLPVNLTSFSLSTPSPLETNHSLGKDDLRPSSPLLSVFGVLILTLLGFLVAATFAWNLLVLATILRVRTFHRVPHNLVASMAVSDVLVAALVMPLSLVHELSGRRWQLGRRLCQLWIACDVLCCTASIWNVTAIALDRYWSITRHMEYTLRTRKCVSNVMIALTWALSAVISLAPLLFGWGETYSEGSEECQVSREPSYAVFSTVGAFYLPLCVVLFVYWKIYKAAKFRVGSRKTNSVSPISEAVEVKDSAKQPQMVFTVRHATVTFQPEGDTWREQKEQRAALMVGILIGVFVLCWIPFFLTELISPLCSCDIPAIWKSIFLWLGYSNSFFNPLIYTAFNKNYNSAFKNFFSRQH
# Sequence of Polyadenylate-binding protein 1 (P11940 whole entry): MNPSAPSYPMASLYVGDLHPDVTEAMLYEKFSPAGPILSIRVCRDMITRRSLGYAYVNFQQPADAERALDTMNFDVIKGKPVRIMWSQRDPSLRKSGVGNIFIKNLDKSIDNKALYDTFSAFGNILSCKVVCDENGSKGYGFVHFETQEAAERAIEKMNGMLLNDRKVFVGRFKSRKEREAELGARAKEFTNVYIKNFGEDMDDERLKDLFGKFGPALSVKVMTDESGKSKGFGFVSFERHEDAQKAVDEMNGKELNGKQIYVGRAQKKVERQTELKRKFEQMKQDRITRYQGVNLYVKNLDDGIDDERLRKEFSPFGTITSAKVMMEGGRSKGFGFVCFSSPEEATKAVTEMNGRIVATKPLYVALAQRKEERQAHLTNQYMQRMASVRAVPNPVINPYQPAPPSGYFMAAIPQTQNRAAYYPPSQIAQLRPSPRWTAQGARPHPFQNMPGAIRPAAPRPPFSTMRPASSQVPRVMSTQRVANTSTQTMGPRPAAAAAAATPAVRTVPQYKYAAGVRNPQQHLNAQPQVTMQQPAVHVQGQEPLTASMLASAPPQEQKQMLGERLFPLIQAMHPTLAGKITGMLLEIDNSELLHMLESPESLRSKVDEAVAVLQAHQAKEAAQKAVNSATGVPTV
# Sequence of SUMO-activating enzyme (Q9UBE0 whole entry): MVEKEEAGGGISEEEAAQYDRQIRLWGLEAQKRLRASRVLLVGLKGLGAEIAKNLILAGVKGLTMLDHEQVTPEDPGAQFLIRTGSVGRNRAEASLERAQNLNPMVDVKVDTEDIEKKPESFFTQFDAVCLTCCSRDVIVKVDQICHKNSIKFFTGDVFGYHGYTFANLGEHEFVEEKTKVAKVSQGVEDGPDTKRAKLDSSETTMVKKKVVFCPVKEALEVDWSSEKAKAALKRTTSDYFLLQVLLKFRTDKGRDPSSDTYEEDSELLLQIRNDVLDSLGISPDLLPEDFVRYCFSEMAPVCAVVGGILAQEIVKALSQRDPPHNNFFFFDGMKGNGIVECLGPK
# Sequence of SUMO-activating enzyme (Q9UBT2 whole entry): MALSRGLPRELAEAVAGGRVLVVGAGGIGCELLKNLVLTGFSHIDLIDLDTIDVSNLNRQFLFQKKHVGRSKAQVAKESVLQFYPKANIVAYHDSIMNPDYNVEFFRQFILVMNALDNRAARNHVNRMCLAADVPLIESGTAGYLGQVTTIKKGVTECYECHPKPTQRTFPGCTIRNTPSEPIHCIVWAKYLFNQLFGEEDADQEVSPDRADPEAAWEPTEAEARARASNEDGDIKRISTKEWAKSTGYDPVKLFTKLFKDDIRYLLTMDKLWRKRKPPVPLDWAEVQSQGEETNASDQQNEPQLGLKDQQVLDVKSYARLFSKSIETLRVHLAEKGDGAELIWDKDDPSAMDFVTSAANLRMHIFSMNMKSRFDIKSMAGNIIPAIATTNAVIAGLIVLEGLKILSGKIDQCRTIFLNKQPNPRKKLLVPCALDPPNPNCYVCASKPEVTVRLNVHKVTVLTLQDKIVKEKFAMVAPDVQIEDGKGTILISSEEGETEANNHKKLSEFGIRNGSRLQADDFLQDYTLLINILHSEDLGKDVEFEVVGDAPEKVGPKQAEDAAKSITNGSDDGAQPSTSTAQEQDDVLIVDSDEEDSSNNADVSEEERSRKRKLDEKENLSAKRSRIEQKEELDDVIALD
# Sequence of SUMO E1/E2 (Q9UBE0 whole entry): as the sequence (Q9UBE0 whole entry) above
# Sequence of SUMO E1/E2 (Q9UBT2 whole entry): as the sequence (Q9UBT2 whole entry) above
# Sequence of SUMO E1/E2 (P63279 whole entry): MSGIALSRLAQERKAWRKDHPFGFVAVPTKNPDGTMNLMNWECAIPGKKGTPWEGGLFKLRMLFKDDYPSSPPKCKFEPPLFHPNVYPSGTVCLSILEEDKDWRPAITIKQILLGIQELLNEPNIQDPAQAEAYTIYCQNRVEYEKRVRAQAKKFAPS
compound,measurement,setting,value
COC(=O)c1cccc(-c2ccc(C(c3c(C)n[nH]c3O)c3c(C)n[nH]c3O)o2)c1,IC50,[1],> 100 µM (inactive)
same,IC50,[2],> 100 µM (inactive)
Cc1cc(/C=C2\SC(=S)N(C)C2=O)c(C)n1-c1ccc(O)cc1,EC50,[3],> 150 µM (not active)
same,IC50,[4],11.2 µM (active)
same,EC50,[5],0.57 µM (active)
same,EC50,[6],3.06 µM (active)
same,AC50,[7],0.492 µM (active)
same,EC50,[8],> 92.5 µM (inactive)
O=C1/C(=N\c2cccc(O)c2)C(N2CCCCC2)=C(O)c2ccccc21,IC50,[9],> 66 µM (inactive)
Cc1ccc(C(=O)NNc2cc(N3CCCC3)nc(N3CCCC3)n2)cc1,IC50,[10],64 µM (not active)
same,EC50,[11],2.3 µM (active)
same,EC50,[12],> 30 µM (not active)
same,IC50,[13],4.39 µM (active)
same,IC50,[14],7.68 µM (active)
